From the supplement of paper PMC8149375
Values belong to the compound of their own block, whether it stands above or below them.

Columns and labels:
Settings in all cases: treatment: drug + dasatinib (fixed dose, not stated); 5 days
[1] = test system: 786-O; test: GI50 of drug in presence of dasatinib; higher = less potent
Protocol: (§1)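 Primary HTS combination arm: 8 RCC cell lines treated with 8 doses (up to 10 uM) of each library drug plus a fixed dose of dasatinib (dose not stated) for 5 days; viability read by CellTiter-Glo and normalised to DMSO. GI50 was fitted with XLfit, AUC is the area under the dose-response curve, and minimum viability is the lowest fraction of DMSO viability across doses.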

[2] = test system: ACHN; test: as above
Protocol: as §1

[3] = test system: UO-31; test: as above
Protocol: as §1

[4] = test system: A498; test: as above
Protocol: as §1

[5] = test system: SN12C; test: as above
Protocol: as §1

[6] = test system: TK-10; test: as above
Protocol: as §1

[7] = test system: CAKI-1; test: as above
Protocol: as §1

[8] = test system: 769-P; test: as above
Protocol: as §1

[9] = test system: 786-O; test: minimum viability across doses, drug + dasatinib, relative to DMSO (fraction); higher = less growth inhibition
Protocol: as §1

[10] = test system: ACHN; test: as above
Protocol: as §1

[11] = test system: UO-31; test: as above
Protocol: as §1

[12] = test system: A498; test: as above
Protocol: as §1

[13] = test system: SN12C; test: as above
Protocol: as §1

[14] = test system: TK-10; test: as above
Protocol: as §1

[15] = test system: CAKI-1; test: as above
Protocol: as §1

[16] = test system: 769-P; test: as above
Protocol: as §1

[17] = test system: 786-O; test: AUC of dose-response viability curve, drug + dasatinib, normalised to DMSO (arbitrary (AUC of normalised viability)); higher = less growth inhibition
Protocol: as §1

[18] = test system: ACHN; test: as above
Protocol: as §1

[19] = test system: UO-31; test: as above
Protocol: as §1

[20] = test system: A498; test: as above
Protocol: as §1

[21] = test system: SN12C; test: as above
Protocol: as §1

[22] = test system: TK-10; test: as above
Protocol: as §1

[23] = test system: CAKI-1; test: as above
Protocol: as §1

[24] = test system: 769-P; test: as above
Protocol: as §1

GI50 of drug [1]: 0.0811 µM
GI50 of drug [2]: 0.0255 µM
Compound: Cc1c(CN2CCN(C(=O)[C@H](C)O)CC2)sc2c(N3CCOCC3)nc(-c3cnc(N)nc3)nc12 [GDC-0980 (RG7422)] + Cc1nc(Nc2ncc(C(=O)Nc3c(C)cccc3Cl)s2)cc(N2CCN(CCO)CC2)n1 [dasatinib]
GI50 of drug [3]: 0.268 µM
GI50 of drug [4]: 0.658 µM
GI50 of drug [5]: 0.119 µM
GI50 of drug [6]: 0.103 µM
GI50 of drug [7]: 0.102 µM
GI50 of drug [8]: 0.0804 µM
minimum viability across doses [9]: 0.00396
minimum viability across doses [10]: 0.0521
minimum viability across doses [11]: 0.00909
minimum viability across doses [12]: 0.17
minimum viability across doses [13]: 0.0934
minimum viability across doses [14]: 0.0374
minimum viability across doses [15]: 0.02
minimum viability across doses [16]: 0.0451
AUC of dose-response viability curve [17]: 1.47
AUC of dose-response viability curve [18]: 1.12
AUC of dose-response viability curve [19]: 2.18
AUC of dose-response viability curve [20]: 2.4
AUC of dose-response viability curve [21]: 1.45
AUC of dose-response viability curve [22]: 1.47
AUC of dose-response viability curve [23]: 1.36
AUC of dose-response viability curve [24]: 1.44

GI50 of drug [1]: 0.434 µM
GI50 of drug [2]: 0.368 µM
Compound: CN1CCN(C2CCN(C(=O)Nc3cc(Oc4ccc(NC(=O)C5(C(=O)Nc6ccc(F)cc6)CC5)c(F)c4)ccn3)CC2)CC1 [Golvatinib (E7050)] + Cc1nc(Nc2ncc(C(=O)Nc3c(C)cccc3Cl)s2)cc(N2CCN(CCO)CC2)n1 [dasatinib]
GI50 of drug [3]: 3.09 µM
GI50 of drug [4]: 9.52 µM
GI50 of drug [5]: 1.62 µM
GI50 of drug [6]: 0.886 µM
GI50 of drug [7]: 0.541 µM
GI50 of drug [8]: 3.67 µM
minimum viability across doses [9]: 0.0302
minimum viability across doses [10]: 0.0563
minimum viability across doses [11]: 0.0151
minimum viability across doses [12]: 0.335
minimum viability across doses [13]: 0.191
minimum viability across doses [14]: 0.154
minimum viability across doses [15]: 0.0248
minimum viability across doses [16]: 0.131
AUC of dose-response viability curve [17]: 1.93
AUC of dose-response viability curve [18]: 1.63
AUC of dose-response viability curve [19]: 4.48
AUC of dose-response viability curve [20]: 3.93
AUC of dose-response viability curve [21]: 2.19
AUC of dose-response viability curve [22]: 2.09
AUC of dose-response viability curve [23]: 1.89
AUC of dose-response viability curve [24]: 2.3

GI50 of drug [1]: 0.0466 µM
GI50 of drug [2]: 0.0147 µM
Compound: CCS(=O)(=O)Nc1ccc2c(c1)/C(=C(/Nc1ccc(CN3CCCCC3)cc1)c1ccccc1)C(=O)N2 [Hesperadin] + Cc1nc(Nc2ncc(C(=O)Nc3c(C)cccc3Cl)s2)cc(N2CCN(CCO)CC2)n1 [dasatinib]
GI50 of drug [3]: 0.357 µM
GI50 of drug [4]: 0.441 µM
GI50 of drug [5]: 0.0826 µM
GI50 of drug [6]: 0.713 µM
GI50 of drug [7]: 0.0455 µM
GI50 of drug [8]: 0.327 µM
minimum viability across doses [9]: 0.0121
minimum viability across doses [10]: 0.00666
minimum viability across doses [11]: 0.0118
minimum viability across doses [12]: 0.109
minimum viability across doses [13]: 0.00226
minimum viability across doses [14]: 0.0643
minimum viability across doses [15]: 0.0323
minimum viability across doses [16]: 0.0628
AUC of dose-response viability curve [17]: 1.2
AUC of dose-response viability curve [18]: 1.18
AUC of dose-response viability curve [19]: 2.5
AUC of dose-response viability curve [20]: 2.05
AUC of dose-response viability curve [21]: 1.26
AUC of dose-response viability curve [22]: 2.17
AUC of dose-response viability curve [23]: 1.15
AUC of dose-response viability curve [24]: 1.86

Further lines, the compound ahead of its results:

Compound: CCOC(=O)C1=C(N)Oc2ccc(Br)cc2[C@H]1[C@H](C#N)C(=O)OCC [HA14-1] + Cc1nc(Nc2ncc(C(=O)Nc3c(C)cccc3Cl)s2)cc(N2CCN(CCO)CC2)n1 [dasatinib]
GI50 of drug [1]: > 10 µM
GI50 of drug [2]: > 10 µM
GI50 of drug [3]: > 10 µM
GI50 of drug [4]: > 10 µM
GI50 of drug [5]: > 10 µM
GI50 of drug [6]: > 10 µM
GI50 of drug [7]: > 10 µM
GI50 of drug [8]: > 10 µM
minimum viability across doses [9]: 0.624
minimum viability across doses [10]: 0.579
minimum viability across doses [11]: 0.952
minimum viability across doses [12]: 0.797
minimum viability across doses [13]: 0.69
minimum viability across doses [14]: 0.725
minimum viability across doses [15]: 0.628
minimum viability across doses [16]: 0.737
AUC of dose-response viability curve [17]: 2.65
AUC of dose-response viability curve [18]: 2.17
AUC of dose-response viability curve [19]: 3.92
AUC of dose-response viability curve [20]: 3.14
AUC of dose-response viability curve [21]: 2.54
AUC of dose-response viability curve [22]: 2.71
AUC of dose-response viability curve [23]: 2.35
AUC of dose-response viability curve [24]: 2.77

Compound: COc1ccc(S(=O)(=O)N(C(C)=O)c2ccccc2/C=C/c2cc[n+]([O-])cc2)cc1 [HMN-214] + Cc1nc(Nc2ncc(C(=O)Nc3c(C)cccc3Cl)s2)cc(N2CCN(CCO)CC2)n1 [dasatinib]
GI50 of drug [1]: 0.0997 µM
GI50 of drug [2]: 0.00538 µM
GI50 of drug [3]: 0.499 µM
GI50 of drug [4]: 0.387 µM
GI50 of drug [5]: 0.342 µM
GI50 of drug [6]: 0.609 µM
GI50 of drug [7]: 0.0744 µM
GI50 of drug [8]: 0.278 µM
minimum viability across doses [9]: 0.00332
minimum viability across doses [10]: 0.102
minimum viability across doses [11]: 0.00841
minimum viability across doses [12]: 0.124
minimum viability across doses [13]: 0.172
minimum viability across doses [14]: 0.297
minimum viability across doses [15]: 0.121
minimum viability across doses [16]: 0.0839
AUC of dose-response viability curve [17]: 1.18
AUC of dose-response viability curve [18]: 1.15
AUC of dose-response viability curve [19]: 2.65
AUC of dose-response viability curve [20]: 2.04
AUC of dose-response viability curve [21]: 1.78
AUC of dose-response viability curve [22]: 2.02
AUC of dose-response viability curve [23]: 1.32
AUC of dose-response viability curve [24]: 1.95

Compound: O=C(Nc1cc(C(F)(F)F)cc(C(F)(F)F)c1)c1cc(Cl)ccc1O [IMD 0354] + Cc1nc(Nc2ncc(C(=O)Nc3c(C)cccc3Cl)s2)cc(N2CCN(CCO)CC2)n1 [dasatinib]
GI50 of drug [1]: 0.373 µM
GI50 of drug [2]: 0.22 µM
GI50 of drug [3]: 2.03 µM
GI50 of drug [4]: 1.7 µM
GI50 of drug [5]: 1.34 µM
GI50 of drug [6]: 0.759 µM
GI50 of drug [7]: 0.481 µM
GI50 of drug [8]: 0.557 µM
minimum viability across doses [9]: 0.00625
minimum viability across doses [10]: 0.00153
minimum viability across doses [11]: 0.0139
minimum viability across doses [12]: 0.0122
minimum viability across doses [13]: 0.00339
minimum viability across doses [14]: 0.07
minimum viability across doses [15]: 0.0138
minimum viability across doses [16]: 0.00617
AUC of dose-response viability curve [17]: 1.62
AUC of dose-response viability curve [18]: 1.29
AUC of dose-response viability curve [19]: 4.26
AUC of dose-response viability curve [20]: 2.92
AUC of dose-response viability curve [21]: 1.97
AUC of dose-response viability curve [22]: 2.03
AUC of dose-response viability curve [23]: 1.85
AUC of dose-response viability curve [24]: 1.9

Compound: CC(C)n1nc(-c2ccc3oc(N)nc3c2)c2c(N)ncnc21 [INK 128] + Cc1nc(Nc2ncc(C(=O)Nc3c(C)cccc3Cl)s2)cc(N2CCN(CCO)CC2)n1 [dasatinib]
GI50 of drug [1]: 0.00488 µM
GI50 of drug [2]: 0.00303 µM
GI50 of drug [3]: 0.0138 µM
GI50 of drug [4]: 0.0338 µM
GI50 of drug [5]: 0.0131 µM
GI50 of drug [6]: 0.00996 µM
GI50 of drug [7]: 0.00918 µM
GI50 of drug [8]: 0.0147 µM
minimum viability across doses [9]: 0.00403
minimum viability across doses [10]: 0.0339
minimum viability across doses [11]: 0.00639
minimum viability across doses [12]: 0.0897
minimum viability across doses [13]: 0.0733
minimum viability across doses [14]: 0.0156
minimum viability across doses [15]: 0.0244
minimum viability across doses [16]: 0.0625
AUC of dose-response viability curve [17]: 0.59
AUC of dose-response viability curve [18]: 0.554
AUC of dose-response viability curve [19]: 0.741
AUC of dose-response viability curve [20]: 1.19
AUC of dose-response viability curve [21]: 0.931
AUC of dose-response viability curve [22]: 0.838
AUC of dose-response viability curve [23]: 0.693
AUC of dose-response viability curve [24]: 0.95
